This assay relates to MCF-7 ESR1-Y537S. The assay can be described thus: Proliferation inhibition assay, MCF-7 ESR1-Y537S mutant cell line. The class given is cell-based. The note with it: Homo sapiens, MCF7, 168 h, 7 days. The method, then:
The tumor cell lines were cultured in an incubator at 37° C. with 5% CO2. Regular passaging was performed, and cells in the logarithmic growth phase were selected for plating.
• 1) Cells were stained with trypan blue and viable cells were counted. • 2) Cells were washed once with PBS and resuspended in RPMI 1640+10% FBS medium without phenol red. The concentration was adjusted to an appropriate one. • 3) 135 μL of the cell suspension per well was added to a culture plate, and cell-free culture medium was added to the blank control well. • 4) The plates were incubated overnight at 37° C. with 5% CO2 and 100% relative humidity. 3. Preparation of 10× Compound Working Solution and Treatment of Cells • 1) Preparation of 10× compound working solution: 199 μL of cell culture medium was added to V-bottom 96-well plates. From a 2000× compound storage plate, 1 μL of the compound was added to the 96-well plate containing cell culture medium. 1 μL of DMSO was added to vehicle control and blank control. […] The final concentration of DMSO was 0.05%. • 3) The 96-well cell plate was returned to the incubator for further culture, and cell viability was assessed after 7 days. […]
The inhibition rate (IR) of the compound was calculated using the following formula:
[formula] Inhibition rates for different concentrations of the compound were calculated in Excel. […]

In general, IC50 refers to the point on the concentration scale where inhibition reaches its midpoint. By IC90 is commonly meant the concentration needed for an effect of 90%. With `FCCCN1CC[C@H](Nc2cnc(C3=C(CC(F)(F)F)CCCc4c3ccc3[nH]nc(F)c43)cn2)C1` [Compound of formula (I)], for the setting “read-out: Relative IC50”, the IC50 came out at 11.2 nM. In addition, the IC90 (read-out: Relative IC90) turned out to be 101 nM.

These data come from patent publication US12410155B2, “Salt form and crystal form of tetrahydrocyclohepta indazole compound” (Zhejiang Yangli Pharmaceutical Technology Co., Ltd., priority 2021, dated 2025).
